# Experimental data taken from patent US12637440B2, “Amide derivative useful as diacylglycerol acyltransferase 2 inhibitor, and use thereof” (LG CHEM, LTD., priority 2019, dated 2026).
# Target: T1, Recombinant human DGAT2 protein (Homo sapiens, UniProt Q96PD7)
# T1 construct: FLAG (DYKDDDDK); (N); made in house; host or cells: Sf-21 insect cells (BacPAK baculovirus system); used as a membrane preparation
# T1 sequence (Q96PD7 1-388): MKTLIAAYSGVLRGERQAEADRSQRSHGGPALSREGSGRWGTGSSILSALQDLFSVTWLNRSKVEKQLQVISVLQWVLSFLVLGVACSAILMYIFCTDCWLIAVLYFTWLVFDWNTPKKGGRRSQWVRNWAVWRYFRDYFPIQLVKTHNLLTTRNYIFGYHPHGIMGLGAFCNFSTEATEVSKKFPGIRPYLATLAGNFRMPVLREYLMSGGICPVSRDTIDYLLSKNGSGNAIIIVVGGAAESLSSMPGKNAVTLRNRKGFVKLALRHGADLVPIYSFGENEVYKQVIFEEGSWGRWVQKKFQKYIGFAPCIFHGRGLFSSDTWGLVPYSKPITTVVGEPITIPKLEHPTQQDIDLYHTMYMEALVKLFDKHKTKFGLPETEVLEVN
# Assay: Measurement of inhibitory effect against DGAT2 enzyme activity (SPA, Phospholipid FlashPlate, [14C]-TG production)
# Format: biochemical
# Conditions: concentration inhibiting [14C]-labeled triacyl glycerol (TG) production by 50%; 2 μg DGAT2-membrane protein from Sf-21 cells, 37° C.
# Procedure, shortened: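 Membranes from Sf-21 cells expressing human DGAT2 (2 μg) preincubated 20 min at 37 °C with compound (3 nM–10 μM, 1% DMSO) in HEPES/MgCl2/BSA with 50 μM 1,2-dioleoyl glycerol, then 1 μM [14C]oleoyl-CoA for 15 min. [14C]-TG measured by SPA FlashPlate; inhibition as % of untreated control.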
row,Compound,IC50 [nM]
1,"CCOc1cccnc1O[C@@H]1CCCN(c2cncc(NC(=O)Cc3ccc(CC(C)(C)C(=O)O)cc3)n2)C1 [Example 116, (R)-3-(4-(2-((6-(3-((3-ethoxypyridin-2-yl)oxy)piperidin-1-yl)pyrazin-2-yl)amino)-2-oxoethyl)phenyl)-2,2-dimethylpropanoic acid]",38
2,"CCOc1ccccc1O[C@@H]1CCCN(c2cncc(NC(=O)CCC34CCC(C(=O)O)(CC3)CC4)n2)C1 [Example 117, (R)-4-(3-((6-(3-(2-ethoxyphenoxy)piperidin-1-yl)pyrazin-2-yl)amino)-3-oxopropyl)bicyclo[2.2.2]octane-1-carboxylic acid]",140
3,"CCOc1ccccc1O[C@@H]1CCCN(c2cncc(NC(=O)CC34CCC(C(=O)O)(CC3)CC4)n2)C1 [Example 118, (R)-4-(2-((6-(3-(2-ethoxyphenoxy)piperidin-1-yl)pyrazin-2-yl)amino)-2-oxoethyl)bicyclo[2.2.2]octane-1-carboxylic acid]",170
4,"CCOc1cccnc1O[C@@H]1CCCN(c2cncc(NC(=O)CCC34CCC(C(=O)O)(CC3)CC4)n2)C1 [Example 120, (R)-4-(3-((6-(3-((3-ethoxypyridin-2-yl)oxy)piperidin-1-yl)pyrazin-2-yl)amino)-3-oxopropyl)bicyclo[2.2.2]octane-1-carboxylic acid]",250
5,"CCOc1ccccc1O[C@@H]1CCCN(c2cncc(NC(=O)/C=C/C34CCC(C(=O)O)(CC3)CC4)n2)C1 [Example 121, (R,E)-4-(3-((6-(3-(2-ethoxyphenoxy)piperidin-1-yl)pyrazin-2-yl)amino)-3-oxoprop-1-en-1-yl)bicyclo[2.2.2]octane-1-carboxylic acid]",98
6,"CCOc1ccccc1O[C@@H]1CCCN(c2nccc(NC(=O)CCc3ccc(C(C)(C)C(=O)O)cc3)n2)C1 [Example 122, (R)-2-(4-(3-((2-(3-(2-ethoxyphenoxy)piperidin-1-yl)pyrimidin-4-yl)amino)-3-oxopropyl)phenyl)-2-methylpropanoic acid]",60
7,"CCOc1cccnc1O[C@@H]1CCCN(c2cncc(NC(=O)CCc3ccc(C(C)(C)C(=O)O)cc3)n2)C1 [Example 123, (R)-2-(4-(3-((6-(3-((3-ethoxypyridin-2-yl)oxy)piperidin-1-yl)pyrazin-2-yl)amino)-3-oxopropyl)phenyl)-2-methylpropanoic acid]",35
8,"CCOc1ccccc1O[C@@H]1CCCN(c2nccc(NC(=O)C(C)(C)c3ccc(CC(C)(C)C(=O)O)cc3)n2)C1 [Example 124, (R)-3-(4-(1-((2-(3-(2-ethoxyphenoxy)piperidin-1-yl)pyrimidin-4-yl)amino)-2-methyl-1-oxopropan-2-yl)phenyl)-2,2-dimethylpropanoic acid]",330
9,"CCOc1cccnc1O[C@@H]1CCCN(c2cncc(NC(=O)C(C)(C)c3ccc(CC(C)(C)C(=O)O)cc3)n2)C1 [Example 125, (R)-3-(4-(1-((6-(3-((3-ethoxypyridin-2-yl)oxy)piperidin-1-yl)pyrazin-2-yl)amino)-2-methyl-1-oxopropan-2-yl)phenyl)-2,2-dimethylpropanoic acid]",35
10,"CC(C)(Cc1ccc(C(C)(C)C(=O)Nc2cncc(N3CCC[C@@H](Oc4ccccc4OC4CCC4)C3)n2)cc1)C(=O)O [Example 126, (R)-3-(4-(1-((6-(3-(2-cyclobutoxyphenoxy)piperidin-1-yl)pyrazin-2-yl)amino)-2-methyl-1-oxopropan-2-yl)phenyl)-2,2-dimethylpropanoic acid]",3800
11,"CCOc1ccccc1O[C@@H]1CCCN(c2cncc(NC(=O)CCc3cccc(CC(C)(C)C(=O)O)c3)n2)C1 [Example 127, (R)-3-(3-(3-((6-(3-(2-ethoxyphenoxy)piperidin-1-yl)pyrazin-2-yl)amino)-3-oxopropyl)phenyl)-2,2-dimethylpropanoic acid]",83
12,"CCOc1cccnc1O[C@@H]1CCCN(c2cncc(NC(=O)CCc3cccc(CC(C)(C)C(=O)O)c3)n2)C1 [Example 128, (R)-3-(3-(3-((6-(3-((3-ethoxypyridin-2-yl)oxy)piperidin-1-yl)pyrazin-2-yl)amino)-3-oxopropyl)phenyl)-2,2-dimethylpropanoic acid]",100
13,"CCOc1ccccc1O[C@@H]1CCCN(c2cncc(NC(=O)c3cccc(-c4cccc(CC(C)(C)C(=O)O)c4)c3)n2)C1 [Example 129, (R)-3-(3′-((6-(3-(2-ethoxyphenoxy)piperidin-1-yl)pyrazin-2-yl)carbamoyl)-[1,1′-biphenyl]-3-yl)-2,2-dimethylpropanoic acid]",540
14,"CCOc1ccccc1O[C@@H]1CCCN(c2cncc(NC(=O)c3cccc(-c4ccc(CC(C)(C)C(=O)O)cc4)c3)n2)C1 [Example 130, (R)-3-(3′-((6-(3-(2-ethoxyphenoxy)piperidin-1-yl)pyrazin-2-yl)carbamoyl)-[1,1′-biphenyl]-4-yl)-2,2-dimethylpropanoic acid]",380
